Measurements as given in patent US20210107874A1, “PHARMACEUTICAL FORMULATION OF CROTONYLAMINOPYRIDINE SALT” (priority 2017, published 2021).
Where a name gives a salt, the structure may show the parent alone.

Tests used:
[1] = Solubility of synthesized tartrate salt and free base of compound 4; type: physicochemical; settings: synthesized tartrate salt; read-out: solubility (can be dissolved)
Procedure: The free base of compound 4 has a solubility of 0.8 mg/ml

Cooperia oncophora = assay: In vivo efficacy in challenged calves, percent reduction of nematodes; settings: subcutaneous injection
Procedure: (§1) Calves of 2-6 months of age were challenged with Ostertagia ostertagi (approx. 20,000 larvae L3/calf) on Day 0 and Cooperia oncophora (approx. 20,000 larvae L3/calf) on Day 1 by oral drench. At day 28, animals were treated by subcutaneous injection at a dose of 0.5 mg/kg (resp. 0.75, 1, 1.5 or 2.5 mg/kg) of a solution of compound 5. On days 35-37 animals were necropsied for extraction and counting of nematodes present. Efficacy was calculated as the percent reduction of nematodes compared to the control group. For calculation the geometric mean of the nematode numbers in treatment and control group was determined (7 animals in treatment group, 8 animals in control group). The solution A used for injection contained in 1 ml: compound 5 (100 mg), L-tartaric acid 52.6 mg, propylene glycol 400 mg, benzyl alcohol 20 mg, water for injection up to 1 ml. A control group was treated by injection of vehicle only. The solution B used for injection contained in 1 ml: (50 mg Compound 5; 24.74 mg L-tartaric acid, water for injection up to 1 ml).

Ostertagia ostertagi = assay: as above; settings: subcutaneous injection
Procedure: as §1

[2] = Solution A (with propylene glycol), 0.5 mg/kg bodyweight
[3] = Solution A (with propylene glycol), 1.5 mg/kg bodyweight
[4] = Solution A (with propylene glycol), 2.5 mg/kg bodyweight
[5] = Solution B (without propylene glycol), 0.75 mg/kg bodyweight
[6] = Solution B (without propylene glycol), 1 mg/kg bodyweight

SMILES	solubility [1] [mg/mL]	reduction of C. oncophora (Cooperia oncophora; [2]) [%]	reduction of C. oncophora (Cooperia oncophora; [3]) [%]	reduction of C. oncophora (Cooperia oncophora; [4]) [%]	reduction of C. oncophora (Cooperia oncophora; [5]) [%]	reduction of C. oncophora (Cooperia oncophora; [6]) [%]	reduction of O. ostertagi (Ostertagia ostertagi; [2]) [%]	reduction of O. ostertagi (Ostertagia ostertagi; [3]) [%]	reduction of O. ostertagi (Ostertagia ostertagi; [4]) [%]	reduction of O. ostertagi (Ostertagia ostertagi; Solution B (without propylene glycol), 0.5 mg/kg bodyweight) [%]	reduction of O. ostertagi (Ostertagia ostertagi; [5]) [%]	reduction of O. ostertagi (Ostertagia ostertagi; [6]) [%]
CCOc1cc(NCCNC(=O)/C=C/C(F)(F)F)ccn1 [tartrate salt of compound 4, tartrate salt of (E)-N-[2-[(2-ethoxy-4-pyridyl)amino]ethyl]-4,4,4-trifluoro-but-2-enamide]	145	–	–	–	–	–	–	–	–	–	–	–
COc1cc(NCCNC(=O)/C=C/C(C)(F)F)ccn1 [tartrate salt of compound 5]	–	97.0	100	100	94.0	96.8	98.7	100	99.8	78.6	99.8	99.9
